Data: US20220213086A1, “AZOLE COMPOUNDS AS IRAK INHIBITORS, PREPARATION METHODS AND MEDICINAL USES THEREOF” (Eternity Bioscience Inc., priority 2020, published 2022)
Where two headings read alike, the source gives them in different places.

Columns and labels:
[1] = target: T1, full length human IRAK4 protein (Homo sapiens, UniProt Q9NWZ3); experiment: IRAK4 biochemical assay (Promega ADP-Glo IRAK4 Kinase Enzyme System); conditions: 3 nM enzyme, 2 μM MBP, 250 μM ATP, 60 min at room temperature
T1 construct: Purified full length human IRAK4 protein; purchased Signal Chem 1112-10G-125
T1 sequence (Q9NWZ3 1-460): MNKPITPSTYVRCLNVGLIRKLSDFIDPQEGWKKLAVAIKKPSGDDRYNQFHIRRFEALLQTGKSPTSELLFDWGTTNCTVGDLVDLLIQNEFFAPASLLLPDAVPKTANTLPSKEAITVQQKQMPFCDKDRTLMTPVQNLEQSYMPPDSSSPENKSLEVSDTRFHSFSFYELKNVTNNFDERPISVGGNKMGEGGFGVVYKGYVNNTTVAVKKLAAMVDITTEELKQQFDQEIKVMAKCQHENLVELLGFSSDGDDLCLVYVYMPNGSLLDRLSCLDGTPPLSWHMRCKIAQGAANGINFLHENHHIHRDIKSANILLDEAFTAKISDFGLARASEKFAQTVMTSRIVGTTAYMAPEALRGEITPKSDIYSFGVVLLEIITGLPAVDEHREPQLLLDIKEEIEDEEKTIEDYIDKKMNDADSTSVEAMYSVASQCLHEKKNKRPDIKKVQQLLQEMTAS
Procedure: For the routine compound screening, an IRAK4 kinase assay was performed as follows using Promega ADP-Glo IRAK4 Kinase Enzyme System (Promega, Cat #2198-AD). Purified full length human IRAK4 protein (Signal Chem; Cat #1112-10G-125) was diluted to a concentration 6 nM in assay buffer (25 mM MOPS, pH 7.2, 12.5 mM β-glycerol-phosphate, 25 mM MgCl2, 5 mM EGTA, 2 mM EDTA, 0.0025% Brij-35, add 0.25 mM DTT to Kinase Assay Buffer prior to use) containing IRAK4 inhibitor at 2× the final concentration in 0.4% DMSO. The reaction was performed in PerkinElmer Proxiplate-384 plus white plate (Fisher Scientific, Cat #50-905-2761) and started by the addition of an equal volume of the assay buffer containing 4 μM native swine myelin basic protein (MBP) and 500 μM ATP to achieve a final concentration of 3 nM enzyme, 2 μM MBP, 250 μM ATP, 1×compound, and 0.2% DMSO. The kinase reaction was allowed to run for 60 min at room temperature (25-27° C.), then 5 μL of ADP-Glo was added to the reaction in each well followed by 40 minutes-incubation at RT. To detect converted ATP, 10 μL Detection Buffer was added into each well and Incubate at RT in dark for 30 minutes. Finally, luminescence was read using Tecan with 1000 ms of integration time. The luminescent signal positively correlates with ADP amount and kinase activity. Data was analyzed by GraphPad Prism and IC50 was calculated using function log(inhibitor) vs. response—Variable slope (four parameters). Percentage of inhibition was calculated as below:
% inhibition=(1−(Reading(Sample)−Reading(Negative Control))/(Reading(Positive Control)−Reading(Negative Control)))×100%
The 0% inhibition value comes from the Reading of Positive Control wells having 0 nM compound. The 100% inhibition value comes from the Reading of Negative Control wells having no IRAK4 kinase.

[2] = system: IRAK4 (TNFα in human peripheral blood mononuclear cells); experiment: IRAK4 human PBMC TNFα cell based assay (AlphaLISA); conditions: TNFα readout
Procedure: In this assay, serially diluted compounds were incubated with 1×10^4 human peripheral blood mononuclear cells (PBMCs) from STEMCELL (Cat #70025.1) per well of 384-well plate (Fisher Scientific; 50-905-2761) and cultured with TexMACS medium (Miltenyi, Cat #130-097-196), stimulated by R848 (0.5 μM) or IL-1β (10 ng/ml). Plates were covered with lids and incubated for 4 h (R848, Fisher Scientific, Cat #NC9801605) or 24 h (IL-1β, Fisher Scientific, Cat #ENRIL1BI) at 37° C. in a humidified tissue-culture incubator. After a brief centrifugation at 1000 rpm for 5 minutes, 5 μl of culture medium was used for the measurement of the TNFα amount using TNFα (human) AlphaLISA Detection Kit (PerkinElmer, Cat #AL208C) according to manufacturer's protocol. A biotinylated anti-TNFα antibody binds to the Streptavidin-coated Donor beads while another anti-TNFα antibody is conjugated to AlphaLISA Acceptor beads. In the presence of the TNFα, the beads come into close proximity. The excitation of the Donor beads causes the release of singlet oxygen molecules that triggers a cascade of energy transfer in the Acceptor beads, resulting in a sharp peak of light emission at 615 nm. AlphaLISA assay plates were read using PHERAstar. Percentage of inhibition was calculated as below:
% inhibition=(1−(Reading(Sample)−Reading(Negative Control))/(Reading(Positive Control)−Reading(Negative Control)))×100% […]

IC50 [1] | IRAK4 Biochemical Assay Max Inhibition (%) [1] | IC50 ([2]; human PBMCs stimulated by IL-1β (10 ng/ml), 24 h, read-out: IRAK4 PBMC AlphaLISA IL-1β (IC50)) | IC50 ([2]; human PBMCs stimulated by R848 (0.5 μM), 4 h, read-out: IRAK4 PBMC AlphaLISA R848 (IC50)) | Compound
240 nM | 98.0% |  |  | COc1cc2c(OC[C@@H]3CCC(=O)N3)nsc2cc1C(N)=O [Example 1, (S)-5-methoxy-3-((5-oxopyrrolidin-2-yl)methoxy)benzo[d]isothiazole-6-carboxamide]
14 nM | 93.0% | 26 nM | 21 nM | CC[C@@H]1[C@H](F)C(=O)N[C@@H]1COc1nsc2cc(C(N)=O)c(OC)cc12 [Example 2]
